Measurements as given in paper PMC8173608, “Probing the Catalytic Mechanism and Inhibition of SAMHD1 Using the Differential Properties of Rp- and Sp-dNTPαS Diastereomers” (Biochemistry, 2021).

target: T1, SAMHD1 (Homo sapiens, UniProt Q9Y3Z3); experiment: coupled enzyme assay (Ppx1/MDCC-PBP), competitive inhibition of TTP hydrolysis; format: biochemical
T1 construct: wt-SAMHD1(1–626)
T1 sequence (Q9Y3Z3 whole entry): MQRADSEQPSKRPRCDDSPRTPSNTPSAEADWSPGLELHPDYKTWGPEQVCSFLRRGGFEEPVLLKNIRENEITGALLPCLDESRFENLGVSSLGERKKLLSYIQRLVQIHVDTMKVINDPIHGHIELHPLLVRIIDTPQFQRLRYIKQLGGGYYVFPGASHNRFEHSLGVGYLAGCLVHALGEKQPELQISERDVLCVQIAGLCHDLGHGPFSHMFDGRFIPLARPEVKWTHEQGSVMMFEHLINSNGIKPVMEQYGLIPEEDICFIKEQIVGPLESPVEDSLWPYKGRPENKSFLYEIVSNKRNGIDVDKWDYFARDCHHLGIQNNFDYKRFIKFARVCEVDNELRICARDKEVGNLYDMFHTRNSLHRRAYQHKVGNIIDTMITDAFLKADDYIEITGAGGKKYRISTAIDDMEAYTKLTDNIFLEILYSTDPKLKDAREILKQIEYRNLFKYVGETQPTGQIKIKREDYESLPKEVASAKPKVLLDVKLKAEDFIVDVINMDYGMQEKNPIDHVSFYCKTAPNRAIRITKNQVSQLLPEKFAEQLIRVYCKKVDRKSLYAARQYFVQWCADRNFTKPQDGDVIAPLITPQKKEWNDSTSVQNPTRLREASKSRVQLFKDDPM

SMILES | Ki [µM]
Cc1cn([C@H]2C[C@H](O)[C@@H](CO[P@](O)(=S)OP(=O)(O)OP(=O)(O)O)O2)c(=O)[nH]c1=O [Sp-TTPαS] | 46 ± 2
Nc1ncnc2c1ncn2[C@H]1C[C@H](O)[C@@H](CO[P@](O)(=S)OP(=O)(O)OP(=O)(O)O)O1 [Sp-dATPαS] | 117 ± 7
Nc1ccn([C@H]2C[C@H](O)[C@@H](CO[P@](O)(=S)OP(=O)(O)OP(=O)(O)O)O2)c(=O)n1 [Sp-dCTPαS] | 6.3 ± 0.4
Nc1nc2c(ncn2[C@H]2C[C@H](O)[C@@H](CO[P@](O)(=S)OP(=O)(O)OP(=O)(O)O)O2)c(=O)[nH]1 [Sp-dGTPαS] | 0.82 ± 0.05
